Test results reported in patent US20090023186A1, “USE OF VALPROIC ACID FOR ENHANCING PRODUCTION OF RECOMBINANT PROTEINS IN MAMMALIAN CELLS” (EXCELLGENE SA, priority 2007, published 2009).

Tested on: CHO DG44 cells
Assay: Alternative transgene TNFR-Fc, batch titer by ELISA (Example 4)
Format: cell-based, Chinese Hamster
Settings: 0.5 mmol/l final VPA, day 5 after transfection
Method: 10 million suspension-adapted HEK293E cells were resuspended in 0.5 ml of Ex-Cell 293 HEK 293 serum-free medium with 4 mmol/l L-glutamine (Cat. No. 14571C-[…]; Lot No. 6A0093; SAFC Biosciences, Lenexa, Kans., USA, “Ex-Cell” medium; note: “Ex-Cell” medium-as used herein-refers to a medium comprising 4 mmol/l L-glutamine) in a 50-ml filter tube each (TPP AG, Trasadingen, Switzerland; Cat. No. 87050, Lot 20050174). In a separate set, 10 million suspension-adapted CHO DG44 cells were resuspended in 0.5 ml of ProCHO5 serum-free medium with 4 mmol/[…] hypoxanthine and 0.194 g/l thymidine (BioWhittaker (Lonza), Belgium; Cat. No. BE12-[…]; Lot No. 7MB0040; “ProCHO5” medium; note: “ProCHO5” medium-as used herein-refers to a medium comprising 4 mmol/[…] hypoxanthine and 0.194 g/l thymidine) in a 50-ml filter tube each (TPP AG, Trasadingen, Switzerland; Cat. No. 87050, Lot 20050174). […] In short, Goat Anti-Human IgG (Fc Fragment specific; Jackson ImmunoResearch Laboratories Inc., West Grove, Pa., USA; Code Number 109-006-098; Lot No. 72349) was used for coating the ELISA-plates, and with AP-conjugated goat anti-human gamma chain IgG (Biosource) the synthesized TNFR-Fc was detected. […] Absorption was measured at 405 nm against 490 nm using a microplate reader (SPECTRAmaxTM340; Molecular Devices, Palo Alto, Calif., USA).

CCCC(CCC)C(=O)O [VPA, valproic acid]
Batch titer: 27.7 ± 3.7 mg/L
Fold increase over control: 1.8 fold
